Laboratory results taken from PMC10287695, “Non-covalent inhibitors of thioredoxin glutathione reductase with schistosomicidal activity in vivo” (Nature Communications, 2023).
Where “and” joins values, the source holds several entries; their conditions need not be identical. Equal values may be shown once. Entries after “also recorded” stand apart in the source; their conditions may differ. Read-outs that look alike come from different tables or passages of the source.

How the values were obtained:
[1] = Pharmacokinetics, intraperitoneal administration; type: in vivo, Swiss Webster mice; conditions: for Plasma concentration, single animal / concentration at 0 h / concentration at 0.5 h / concentration at 1 h / concentration at 2 h: IP; for Plasma concentration, single animal / concentration at 0 h / concentration at 0.5 h / concentration at 1 h / concentration at 2 h / concentration at 30 min / concentration at 60 min / concentration at 120 min / plasma concentration: 100 mg/kg; for concentration at 0 h / concentration at 0.5 h / concentration at 1 h / concentration at 2 h / concentration at 30 min / concentration at 60 min / concentration at 120 min / Cmax / half-life: male, Swiss Webster, mouse, plasma, ip; for concentration at 30 min / concentration at 60 min / concentration at 120 min / Cmax / half-life / overt toxicity / plasma concentration: mice; for Cmax: at 30 min; for half-life: estimated from the time points available
Protocol: All the mice were weighed and dosed intraperitoneally accordingly at 100 mg/kg body weight with freshly prepared 1 or 2.
Blood was collected by submandibular puncture into 1 mL Eppendorf tubes, the plasma was separated and stored in −80 °C until used. A 25 µl of mouse plasma was transferred into 1.5 ml centrifuge tube which was spiked with 2.5 µl of internal standard (IS) working standard solution […] to get final IS contraction of 250 ng/ml and the solution was vortexed. An aliquot of 75 µl of methanol/0.15 formic acid was added and gently vortexed for 2 min. The samples then centrifuged for 20 min at 4 °C and 15000 × g. A clear supernatant (50 µl) with added 50 µl mobile phase (reconstitution solution) from each extraction was then transferred into a 250 µl autosampler vial. A 3 µl aliquot of each sample was injected for LC-MSMS analysis.
The total run time of 2 min with an injection volume of 3 μl at column temperature 40 °C were efficient to achieve accepted results.
A Shimadzu LC20AD, Ultra Performance Liquid Chromatography (UPLC) system (Shimadzu Corporation, Kyoto, Japan) equipped with Shimadzu 8040 triple quadrupole (QqQ) mass analyzer (Shimadzu Corporation, Kyoto, Japan) with an electrospray ionization source (ESI) operated in the positive charge mode for the quantification of 1 and 2.

[2] = Pharmacokinetics, oral gavage; conditions: for plasma concentration, individual animals (Animal 1, Animal 2) / plasma concentration: listed as 1 (8VP101); for plasma concentration, individual animals (Animal 1, Animal 2) / concentration at 30 min / concentration at 60 min / concentration at 120 min / concentration at 0.5 h / concentration at 1 h / concentration at 2 h / plasma concentration: 200 mg/kg; for concentration at 30 min / concentration at 60 min / concentration at 120 min / concentration at 0.5 h / concentration at 1 h / concentration at 2 h: female, Swiss Webster, mouse, plasma, po
Protocol: Tween 80 and saline were then added to the DMSO solution in that order. Final solution was 10% DMSO:10% Tween 80:80% saline.
Swiss Webster female mice were purchased from Charles River Laboratories (Wilmington, MA, USA). […] All the mice were weighed and gavaged orally at 200 mg/kg body weight with freshly prepared 2. Blood was collected by submandibular puncture at 0, 0.25, 0.5, 1, and 2 h.
Samples were deproteinized with 150 µl of internal standard solution. This mixture was vortexed to mix properly and centrifuged at 13000 × g for 30 min. 160 µl of the supernatant was transferred to another set of tubes and dried using a nitrogen evaporator. Samples were reconstituted in 100 µl of methanol, vortexed and centrifuged at 13000 × g for 20 min. 30 µl of supernatant was transferred to autosampler vials.
Experiments were carried out on ThermoFisher Scientific Vanquish high-performance liquid chromatography connected to ThermoFisher Scientific TSQ Quantis – triple quadrupole mass spectrometer. The analyte molecules were separated on Phenomenex kinetex C18 column 100 Å (2.6 μm, 50 × 3 mm) with the mobile phase composed of Water/0.1% formic acid (A) and Acetonitrile (B) at the flow rate of 0.5 ml/min with the column temperature maintained at 40 °C and the sample of injection was 5 µl.
Quantification was performed using electrospray in the positive mode with the spray voltage of 3500 V. Sheath gas (Arb) 20, Auxiliary gas (Arb) 8 and Sweep gas (Arb) 5.7.

[3] = Stability of compound under biochemical assay conditions with recombinant TGR (LC-MS); type: physicochemical; conditions: with or without NADPH
Protocol: TGR assay solutions (1 ml each) were prepared as described in the main manuscript. […] Each of the reaction mixtures were terminated by the addition of 250 µl of ethyl acetate, extracted with 1 ml of methyl tert-butyl ether. The organic layer was evaporated in vacuo, and the residue was redissolved in 0.5 mL of 50% MeOH before injection onto LC column. LC-MS analysis was done on a Waters SYNAPT quadrupole/time-of-flight mass spectrometer operated in positive ion electrospray mode. The column was Waters XBridge C8 column and gradient was from 20-90% MeCN/0.1% formic acid over 12 min.

TGR = target: T1, TGR (Schistosoma mansoni, UniProt Q962Y6); type: biochemical, S. mansoni; conditions: 6 hr preincubation
T1 construct: made in house
T1 sequence (Q962Y6 1-598): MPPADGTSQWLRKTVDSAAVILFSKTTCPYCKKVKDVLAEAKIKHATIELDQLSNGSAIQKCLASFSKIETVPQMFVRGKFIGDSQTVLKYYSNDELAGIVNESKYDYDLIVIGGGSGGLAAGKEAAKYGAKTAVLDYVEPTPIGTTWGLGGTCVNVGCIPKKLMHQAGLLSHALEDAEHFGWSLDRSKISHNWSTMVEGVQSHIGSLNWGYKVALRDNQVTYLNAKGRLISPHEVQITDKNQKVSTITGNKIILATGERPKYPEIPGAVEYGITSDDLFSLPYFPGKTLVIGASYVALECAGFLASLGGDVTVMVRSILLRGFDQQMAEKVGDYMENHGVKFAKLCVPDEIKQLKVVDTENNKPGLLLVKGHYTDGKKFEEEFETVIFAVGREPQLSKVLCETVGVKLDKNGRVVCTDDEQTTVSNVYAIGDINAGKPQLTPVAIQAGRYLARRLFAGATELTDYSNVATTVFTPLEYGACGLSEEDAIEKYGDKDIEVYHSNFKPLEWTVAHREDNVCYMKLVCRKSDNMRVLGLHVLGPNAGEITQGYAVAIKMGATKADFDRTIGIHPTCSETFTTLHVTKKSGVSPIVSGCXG

[4] = 0 Hour, read-out: Plasma concentration, Average
[5] = 0 Hour, read-out: Plasma concentration, single animal
[6] = 0.5 Hour, read-out: Plasma concentration, Average
[7] = 0.5 Hour, read-out: Plasma concentration, single animal
[8] = 1 Hour, read-out: Plasma concentration, Average
[9] = 1 Hour, read-out: Plasma concentration, single animal
[10] = 2 Hour, read-out: Plasma concentration, Average
[11] = 2 Hour, read-out: Plasma concentration, single animal

In the case of `Cc1oc(-c2ccc3c(c2)OCO3)nc1CN[C@@H]1C[C@@H]2C[C@H]([C@H]1C)C2(C)C` [Compound 1], the “Plasma concentration, single animal” value ([1]; 0 Hour, listed as 1 (8VP70)) is reported as 0.000 uM (2×) and 0.000 ug/mL (2×), the “Plasma concentration, single animal” value ([1]; 0.5 Hour, listed as 1 (8VP70)) is reported as 4.093 uM and 4.069 uM and 1.508 ug/mL and 1.499 ug/mL and the “Plasma concentration, single animal” value ([1]; 1 Hour, listed as 1 (8VP70)) is reported as 3.040 uM and 3.641 uM and 1.120 ug/mL and 1.342 ug/mL. The “Plasma concentration, single animal” value ([1]; 2 Hour, listed as 1 (8VP70)) was 2.409 uM and 2.589 uM and 0.888 ug/mL and 0.954 ug/mL, the concentration at 0 h [1, 4] was 0 nM and 0 ng/mL and the concentration at 0 h [1, 5] was 0 nM and 0 ng/mL. For the same molecule, the concentration at 0.5 h [1, 6] was 4.11 µM and 1510 ng/mL, the concentration at 0.5 h [1, 7] was 4.16 µM and 1530 ng/mL and the concentration at 1 h [1, 8] was 3.28 µM and 1210 ng/mL. The concentration at 1 h [1, 9] was 3.16 µM and 1160 ng/mL, the concentration at 2 h [1, 10] was 2.35 µM and 865 ng/mL and the concentration at 2 h [1, 11] was 2.05 µM and 754 ng/mL. The concentration at 30 min ([1]; 100 mg/kg i.p., 30 min) was 4.11 ± 0.047 µM, the concentration at 60 min ([1]; 100 mg/kg i.p., 60 min) was 3.28 ± 0.318 µM and the concentration at 120 min ([1]; 100 mg/kg i.p., 120 min) was 2.35 ± 0.277 µM. It also gave a concentration at 30 min ([1]; intraperitoneal, 30 min) of 1510 ± 17 ng/mL, a concentration at 60 min ([1]; intraperitoneal, 60 min) of 1210 ± 117 ng/mL and a concentration at 120 min ([1]; intraperitoneal, 120 min) of 865 ± 102 ng/mL. The Cmax ([1]; 100 mg/kg i.p.) was 4.1 µM, the half-life ([1]; 100 mg/kg i.p.) was ~1.5 h and the overt toxicity ([1]; 100 mg/kg i.p.) was “no overt toxicity”. The plasma concentration ([1]; 100 mg/kg i.p., 30 min) was 4.1 µM, the plasma concentration ([1]; 100 mg/kg i.p., 60 min) was 3.3 µM and the plasma concentration ([1]; 100 mg/kg i.p., 120 min) was 2.4 µM.
With `CCc1ccccc1-c1nc(CN[C@@H]2C[C@@H]3C[C@H]([C@H]2C)C3(C)C)c(C)o1` [Compound 2] the “plasma concentration, individual animals (Animal 1, Animal 2)” value (“plasma concentration, individual animals” below) ([2]; PO 200 mg/kg, 0.5 Hour) was 0.255 ug/mL and 0.704 uM, the “plasma concentration, individual animals” value ([2]; PO 200 mg/kg, 1 Hour) was 0.273 ug/mL and 0.767 uM and the “plasma concentration, individual animals” value ([2]; PO 200 mg/kg, 2 Hour) was 0.135 ug/mL and 0.409 uM. For the same molecule, the concentration at 30 min ([2]; Plasma concentration, mice, oral gavage, 30 min) was 714 nM and 252 ng/mL, the concentration at 60 min ([2]; Plasma concentration, mice, oral gavage, 60 min) was 771 nM and 272 ng/mL and the concentration at 120 min ([2]; Plasma concentration, mice, oral gavage, 120 min) was 396 nM and 140 ng/mL. The concentration at 0.5 h ([2]; plasma concentration, Average, PO 200 mg/kg, 0.5 Hour) was 252 ng/mL, the concentration at 1 h ([2]; plasma concentration, Average, PO 200 mg/kg, 1 Hour) was 272 ng/mL and the concentration at 2 h ([2]; plasma concentration, Average, PO 200 mg/kg, 2 Hour) was 140 ng/mL. For the same molecule, the concentration at 0.5 h ([2]; plasma concentration, individual animals (Animal 1, Animal 2), PO 200 mg/kg, 0.5 Hour) was 724 nM and 248 ng/mL, the concentration at 1 h ([2]; plasma concentration, individual animals (Animal 1, Animal 2), PO 200 mg/kg, 1 Hour) was 774 nM and 270 ng/mL and the concentration at 2 h ([2]; plasma concentration, individual animals (Animal 1, Animal 2), PO 200 mg/kg, 2 Hour) was 383 nM and 144 ng/mL. For the same molecule, the concentration at 30 min ([2]; plasma concentration, mice, 200 mg/kg p.o., 30 min) was 0.71 µM, the concentration at 60 min ([2]; plasma concentration, mice, 200 mg/kg p.o., 60 min) was 0.77 µM and the concentration at 120 min ([2]; plasma concentration, mice, 200 mg/kg p.o., 120 min) was 0.4 µM. The plasma concentration ([2]; mice, 200 mg/kg p.o., 30 min) was 0.714 µM, the plasma concentration ([2]; mice, 200 mg/kg p.o., 60 min) was 0.771 µM and the plasma concentration ([2]; mice, 200 mg/kg p.o., 120 min) was 0.396 µM. For the same molecule, the maximum plasma concentration ([2]; mice, PO 200 mg/kg) was 0.77 µM, the “formation of derivatives under biochemical assay conditions” value [3] was “No additional ions except for those corresponding to 2 were detected; also recorded: no formation of derivatives” and the “Plasma concentration, single animal” value ([1]; 0 Hour, listed as 2 (8VP101)) was 0.000 uM (2×) and 0.000 ug/mL (2×). For the same molecule, the “Plasma concentration, single animal” value ([1]; 0.5 Hour, listed as 2 (8VP101)) was 4.991 uM and 5.302 uM and 1.758 ug/mL and 1.868 ug/mL, the “Plasma concentration, single animal” value ([1]; 1 Hour, listed as 2 (8VP101)) was 4.630 uM and 3.814 uM and 1.631 ug/mL and 1.343 ug/mL and the “Plasma concentration, single animal” value ([1]; 2 Hour, listed as 2 (8VP101)) was 3.386 uM and 3.401 uM and 1.193 ug/mL and 1.198 ug/mL. The concentration at 0 h [1, 4] was 0 nM and 0 ng/mL, the concentration at 0 h [1, 5] was 0 nM and 0 ng/mL and the concentration at 0.5 h [1, 6] was 4.8 µM and 1690 ng/mL. The concentration at 0.5 h [1, 7] was 4.12 µM and 1450 ng/mL, the concentration at 1 h [1, 8] was 3.91 µM and 1520 ng/mL and the concentration at 1 h [1, 9] was 3.29 µM and 1600 ng/mL. For the same molecule, the concentration at 2 h [1, 10] was 3.06 µM and 1080 ng/mL, the concentration at 2 h [1, 11] was 2.39 µM and 846 ng/mL and the concentration at 30 min ([1]; 100 mg/kg i.p., 30 min) was 4.8 ± 0.612 µM. It also gave a concentration at 60 min ([1]; 100 mg/kg i.p., 60 min) of 3.91 ± 0.674 µM, a concentration at 120 min ([1]; 100 mg/kg i.p., 120 min) of 3.06 ± 0.578 µM and a concentration at 30 min ([1]; intraperitoneal, 30 min) of 1690 ± 216 ng/mL. The concentration at 60 min ([1]; intraperitoneal, 60 min) was 1520 ± 158 ng/mL, the concentration at 120 min ([1]; intraperitoneal, 120 min) was 1080 ± 202 ng/mL and the Cmax ([1]; 100 mg/kg i.p.) was 4.8 µM. The half-life ([1]; 100 mg/kg i.p.) was ~1.5 h, the overt toxicity ([1]; 100 mg/kg i.p.) was “no overt toxicity” and the plasma concentration ([1]; 100 mg/kg i.p., 30 min) was 4.8 µM. For the same molecule, the plasma concentration ([1]; 100 mg/kg i.p., 60 min) was 3.9 µM and the plasma concentration ([1]; 100 mg/kg i.p., 120 min) was 3.0 µM.
With `Cc1oc(-c2ccccc2)nc1CN[C@@H]1C[C@@H]2C[C@H]([C@H]1C)C2(C)C` [Compound 3] the Vmax (TGR; 35 µM inhibitor) was 0.011 ± 0.0002 ΔA412/min and the Vmax (TGR; 50 µM inhibitor) was 0.0096 ± 0.0002 ΔA412/min.
